Patent US7183112B2, “Uses for anti-malarial therapeutic agents” (APT Pharmaceuticals, LLC, priority 1999, dated 2007)
Where “and” joins values, the source holds several entries; their conditions need not be identical. Identical values can stand only once. Entries after “also recorded” stand apart in the source; their conditions may differ.

Test system: Ascaris-sensitized sheep
Assay: Antigen-induced changes in specific lung resistance (early and late responses), Examples 1-2
Format: in vivo
Details: for Specific resistance, +1 HR % / Specific resistance, +1 HR Srl: 1 h post antigen; for Specific resistance, +2 HRS % / Specific resistance, +2 HRS Srl: 2 h post antigen; for Specific resistance, P-ASC % / Specific resistance, P-ASC Srl: immediately post Ascaris antigen; for Specific resistance, P-pl/dg % (immediate) / Specific resistance, P-pl/dg Srl (immediate): immediately post drug; for Specific resistance, P-pl/dg % (just before Ag) / Specific resistance, P-pl/dg Srl (just before Ag): post drug, just before antigen; for Specific resistance, +3 HRS % / Specific resistance, +3 HRS Srl: 3 h post antigen; for Specific resistance, +4 HRS % / Specific resistance, +4 HRS Srl: 4 h post antigen; for Specific resistance, +5 HRS % / Specific resistance, +5 HRS Srl: 5 h post antigen; for Specific resistance, +7 HRS % / Specific resistance, +7 HRS Srl: 7 h post antigen; for Specific resistance, +7.5 HRS % / Specific resistance, +7.5 HRS Srl: 7.5 h post antigen; for Specific resistance, +8 HRS % / Specific resistance, +8 HRS Srl: 8 h post antigen
Procedure: All procedures were approved by the Mount Sinai Medical Center Animal Research Committee, which is responsible for assuring the humane care and use of experimental animals.
Measurement of Airway Mechanics: The unsedated sheep were restrained in a cart in the prone position with their heads immobilized. After topical anesthesia of the nasal passages with 2% lidocaine solution, a balloon catheter was advanced through one nostril into the lower esophagus. The animals were […] with a cuffed endotracheal tube through the other nostril using a flexible fiberoptic bronchoscope as a guide. […] Pleural pressure was estimated with the esophageal balloon catheter (filled with one ml of air) which was positioned 5–10 cm from the gastroesophageal junction. […] Once the balloon was placed, it was secured so that it remained in position for the duration of the experiment. Lateral pressure in the trachea was-measured with a sidehole catheter (inner dimension, 2.5 mm) advanced through and positioned distal to the tip of the endotracheal tube. Transpulmonary pressure, the difference between tracheal and pleural pressure, was measured with a differential pressure transducer catheter system. For the measurement of pulmonary resistance (RL), the proximal end of the endotracheal tube was connected to a pneumotachograph (Fleisch No. 1; Dyna Sciences, Inc., Blue Bell, Pa.). […] The mean of at least five breaths, free of swallowing artifact, was used to obtain RL in cm H2O/L/s. Immediately after the measurement of RL, thoracic gas volume (Vtg) was measured in a constant-volume body plethysmograph to obtain specific lung resistance (SRL=RL×Vtg) in L×cm H2O/L/s.
Aerosol Delivery Systems: Aerosols of Ascaris suum extract (diluted 20:1 with phosphate buffered saline; 82,000 PNU/ml) were generated using a disposable medical nebulizer (Raindrop^R, Puritan Bennett), which produces an aerosol with a mass median aerodynamic diameter of 3.2 μm (geometric standard deviation, 1.9) as determined by a 7 stage Andersen cascade impactor. The output from the nebulizer was directed into a plastic T-piece, one end of which was connected to the inspiratory port of a Harvard respirator. […] The aerosol was delivered at a tidal volume of 500 ml and a rate of 20 breaths per minute for 20 minutes. Each sheep was challenged with an equivalent dose of antigen (400 breaths) in the control and drug trials. Carbachol aerosols were also generated with this same nebulizer system.
At 3 to 4 days before treatment was begun, baseline airway responsiveness, to aerosol carbachol (i.e., PC400) was determined and a baseline bronchial biopsy performed. […] The animals were treated two times a day for 3 days and then, on the fourth day, at 0.5 hours before antigen challenge and again at 4 hours after challenge. […] SRL was remeasured 0.5 h after treatment (just before challenge) and the animals were then challenged with antigen. SRL was then remeasured immediately after.
On the fourth day, they received an additional treatment one-half hour prior to antigen challenge.

[1] = Example 1, aerosol 30 mg/animal (0.78 mg/kg) twice a day, Mean
[2] = Example 1, aerosol 30 mg/animal (0.78 mg/kg) twice a day, individual sheep
[3] = Example 2, aerosol 40 mg b.i.d. (2 mg/kg/day)
[4] = Example 2, aerosol 40 mg b.i.d. (2 mg/kg/day), Mean of 2 sheep
[5] = Example 2, aerosol 40 mg b.i.d. (2 mg/kg/day), individual sheep
[6] = Example 2, aerosol 40 mg b.i.d. (2 mg/kg/day), 6 h post antigen, Mean of 2 sheep
[7] = Example 2, aerosol 40 mg b.i.d. (2 mg/kg/day), 6 h post antigen, individual sheep
[8] = Example 2, aerosol 40 mg b.i.d. (2 mg/kg/day), +6 HRS, individual sheep
[9] = inhaled (nebulized), summary of animal studies

`CCN(CCO)CCCC(C)Nc1ccnc2cc(Cl)ccc12` (centres unmarked) [HCQ, hydroxychloroquine] was tested, and the “Specific resistance, +1 HR %” value [1] was 38%, the “Specific resistance, +1 HR Srl” value [1] was 1.39 L×cm H2O/L/s and the “Specific resistance, +1 HR %” value [2] was 32% and 43% and 30%. The “Specific resistance, +1 HR Srl” value [2] was 1.35 L×cm H2O/L/s and 1.49 L×cm H2O/L/s, the “Specific resistance, +2 HRS %” value [1] was 42% and the “Specific resistance, +2 HRS Srl” value [1] was 1.44 L×cm H2O/L/s. For the same compound, the “Specific resistance, +2 HRS %” value [2] was 11% and 74% and 4%, the “Specific resistance, +2 HRS Srl” value [2] was 1.13 L×cm H2O/L/s and 1.74 L×cm H2O/L/s and 1.2 L×cm H2O/L/s and the “Specific resistance, P-ASC %” value [1] was 95%. For the same compound, the “Specific resistance, P-ASC Srl” value [1] was 1.97 L×cm H2O/L/s, the “Specific resistance, P-ASC %” value [2] was 140% and 49% and 189% and the “Specific resistance, P-ASC Srl” value [2] was 2.45 L×cm H2O/L/s and 1.49 L×cm H2O/L/s and 3.32 L×cm H2O/L/s. The “Specific resistance, P-pl/dg % (immediate)” value [1] was 10%, the “Specific resistance, P-pl/dg Srl (immediate)” value [1] was 1.11 L×cm H2O/L/s and the “Specific resistance, P-pl/dg % (immediate)” value [2] was 18% and 2% and 19%. For the same compound, the “Specific resistance, P-pl/dg Srl (immediate)” value [2] was 1.20 L×cm H2O/L/s and 1.02 L×cm H2O/L/s and 1.37 L×cm H2O/L/s, the “Specific resistance, P-pl/dg % (just before Ag)” value [1] was 2% and the “Specific resistance, P-pl/dg Srl (just before Ag)” value [1] was 1.03 L×cm H2O/L/s. For the same compound, the “Specific resistance, P-pl/dg % (just before Ag)” value [2] was 9% and −5% and −2%, the “Specific resistance, P-pl/dg Srl (just before Ag)” value [2] was 1.11 L×cm H2O/L/s and 0.95 L×cm H2O/L/s and 1.13 L×cm H2O/L/s and the “effect on acute reactions” value [3] was “not inhibited”. For the same compound, the “effect on late phase asthmatic reactions” value [3] was “virtually completely blocked”, the “Specific resistance, +1 HR %” value [4] was 132% and the “Specific resistance, +1 HR Srl” value [4] was 2.43 L×cm H2O/L/s. The “Specific resistance, +1 HR %” value [5] was 171% and 93%, the “Specific resistance, +1 HR Srl” value [5] was 2.76 L×cm H2O/L/s and 2.10 L×cm H2O/L/s and the “Specific resistance, +2 HRS %” value [4] was 69%. For the same compound, the “Specific resistance, +2 HRS Srl” value [4] was 1.74 L×cm H2O/L/s, the “Specific resistance, +2 HRS %” value [5] was 102% and 36% and the “Specific resistance, +2 HRS Srl” value [5] was 2.06 L×cm H2O/L/s and 1.48 L×cm H2O/L/s. The “Specific resistance, +3 HRS %” value [4] was 50%, the “Specific resistance, +3 HRS Srl” value [4] was 1.58 L×cm H2O/L/s and the “Specific resistance, +3 HRS %” value [5] was 54% and 46%. The “Specific resistance, +3 HRS Srl” value [5] was 1.57 L×cm H2O/L/s and 1.59 L×cm H2O/L/s, the “Specific resistance, +4 HRS %” value [4] was 19% and the “Specific resistance, +4 HRS Srl” value [4] was 1.26 L×cm H2O/L/s. The “Specific resistance, +4 HRS %” value [5] was 10% and 28%, the “Specific resistance, +4 HRS Srl” value [5] was 1.12 L×cm H2O/L/s and 1.39 L×cm H2O/L/s and the “Specific resistance, +5 HRS %” value [4] was 17%. The “Specific resistance, +5 HRS Srl” value [4] was 1.23 L×cm H2O/L/s, the “Specific resistance, +5 HRS %” value [5] was 36% and −2% and the “Specific resistance, +5 HRS Srl” value [5] was 1.39 L×cm H2O/L/s and 1.07 L×cm H2O/L/s. The “Specific resistance, +6 HRS %” value [6] was 18%, the “Specific resistance, +6 HRS Srl” value [6] was 1.24 L×cm H2O/L/s and the “Specific resistance, +6 HRS %” value [7] was 20% and 16%. For the same compound, the “Specific resistance, +6 HRS Srl” value [7] was 1.22 L×cm H2O/L/s and 1.26 L×cm H2O/L/s, the “Specific resistance, +7 HRS %” value [4] was 16% and the “Specific resistance, +7 HRS Srl” value [4] was 1.23 L×cm H2O/L/s. For the same compound, the “Specific resistance, +7 HRS %” value [5] was 20% and 13%, the “Specific resistance, +7 HRS Srl” value [5] was 1.22 L×cm H2O/L/s and 1.23 L×cm H2O/L/s and the “Specific resistance, +7.5 HRS %” value [4] was 35%. The “Specific resistance, +7.5 HRS Srl” value [4] was 1.42 L×cm H2O/L/s, the “Specific resistance, +7.5 HRS %” value [5] was 50% and 19% and the “Specific resistance, +7.5 HRS Srl” value [5] was 1.53 L×cm H2O/L/s and 1.30 L×cm H2O/L/s. The “Specific resistance, +8 HRS %” value [4] was 20%, the “Specific resistance, +8 HRS Srl” value [4] was 1.27 L×cm H2O/L/s and the “Specific resistance, +8 HRS %” value [5] was 22% and 18%. For the same compound, the “Specific resistance, +8 HRS Srl” value [5] was 1.24 L×cm H2O/L/s and 1.29 L×cm H2O/L/s, the “Specific resistance, +6 HRS Srl” value (Example 2, aerosol 40 mg b.i.d. (2 mg/kg/day), +6 HRS, Mean of 2 sheep) was 1.21 L×cm H2O/L/s and the “Specific resistance, +6 HRS %” value [8] was 8% and 21%. For the same compound, the “Specific resistance, +6 HRS Srl” value [8] was 1.10 L×cm H2O/L/s and 1.32 L×cm H2O/L/s, the “Specific resistance, P-ASC %” value [4] was 238% and the “Specific resistance, P-ASC Srl” value [4] was 3.58 L×cm H2O/L/s. For the same compound, the “Specific resistance, P-ASC %” value [5] was 196% and 280%, the “Specific resistance, P-ASC Srl” value [5] was 3.02 L×cm H2O/L/s and 4.14 L×cm H2O/L/s and the “Specific resistance, P-pl/dg % (immediate)” value [4] was 3%. For the same compound, the “Specific resistance, P-pl/dg Srl (immediate)” value [4] was 1.08 L×cm H2O/L/s, the “Specific resistance, P-pl/dg % (immediate)” value [5] was 13% and −7% and the “Specific resistance, P-pl/dg Srl (immediate)” value [5] was 1.15 L×cm H2O/L/s and 1.01 L×cm H2O/L/s. For the same compound, the “Specific resistance, P-pl/dg % (just before Ag)” value [4] was 1%, the “Specific resistance, P-pl/dg Srl (just before Ag)” value [4] was 1.07 L×cm H2O/L/s and the “Specific resistance, P-pl/dg % (just before Ag)” value [5] was −6% and 7%%. The “Specific resistance, P-pl/dg Srl (just before Ag)” value [5] was 0.96 L×cm H2O/L/s and 1.17 L×cm H2O/L/s, the “Specific resistance, +6 HRS %” value (Example 2, aerosol 40 mg b.i.d. (2 mg/kg/day), second +6 HRS column (text: at 6.5 hours), Mean of 2 sheep) was 14% and the “irritant effects / tolerability of aerosolized HCQ (airway resistance after inhalation)” value (aerosol, sheep, specific resistance pre- and immediately following application) was “well tolerated; also recorded: does not cause any major irritant effects”. The “effect on immediate allergic-mediated bronchostrictive responses” value [9] was “partially blocks” and the “effect on late-phase responses (four to 12 hours post-antigen challenge)” value [9] was “virtually eliminates”.
